According to ChEMBL document CHEMBL1130263 (J Med Chem, 1997):

Experiments:
[1] = molecular target: T1, Adrenergic receptor alpha-1 (Rattus norvegicus, UniProt P15823+P23944+P43140); experiment: Inhibition of [3H]prazosin binding to Alpha-1 adrenergic receptor in rat brain membranes
T1 sequence (P15823 whole entry): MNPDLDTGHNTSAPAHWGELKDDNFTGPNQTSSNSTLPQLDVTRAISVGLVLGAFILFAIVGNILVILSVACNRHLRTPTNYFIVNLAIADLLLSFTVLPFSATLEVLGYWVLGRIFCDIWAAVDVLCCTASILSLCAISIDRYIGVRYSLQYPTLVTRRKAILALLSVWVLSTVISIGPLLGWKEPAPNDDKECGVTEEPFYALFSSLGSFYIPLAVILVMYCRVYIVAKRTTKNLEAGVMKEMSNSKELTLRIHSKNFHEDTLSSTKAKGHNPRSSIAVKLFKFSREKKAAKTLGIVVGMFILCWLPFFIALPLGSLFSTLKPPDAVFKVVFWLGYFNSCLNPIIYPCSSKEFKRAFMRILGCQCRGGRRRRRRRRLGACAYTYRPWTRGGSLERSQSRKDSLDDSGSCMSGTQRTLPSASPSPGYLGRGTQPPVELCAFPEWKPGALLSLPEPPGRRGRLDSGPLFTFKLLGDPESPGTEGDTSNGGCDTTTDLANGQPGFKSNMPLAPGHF
T1 sequence (P23944 whole entry): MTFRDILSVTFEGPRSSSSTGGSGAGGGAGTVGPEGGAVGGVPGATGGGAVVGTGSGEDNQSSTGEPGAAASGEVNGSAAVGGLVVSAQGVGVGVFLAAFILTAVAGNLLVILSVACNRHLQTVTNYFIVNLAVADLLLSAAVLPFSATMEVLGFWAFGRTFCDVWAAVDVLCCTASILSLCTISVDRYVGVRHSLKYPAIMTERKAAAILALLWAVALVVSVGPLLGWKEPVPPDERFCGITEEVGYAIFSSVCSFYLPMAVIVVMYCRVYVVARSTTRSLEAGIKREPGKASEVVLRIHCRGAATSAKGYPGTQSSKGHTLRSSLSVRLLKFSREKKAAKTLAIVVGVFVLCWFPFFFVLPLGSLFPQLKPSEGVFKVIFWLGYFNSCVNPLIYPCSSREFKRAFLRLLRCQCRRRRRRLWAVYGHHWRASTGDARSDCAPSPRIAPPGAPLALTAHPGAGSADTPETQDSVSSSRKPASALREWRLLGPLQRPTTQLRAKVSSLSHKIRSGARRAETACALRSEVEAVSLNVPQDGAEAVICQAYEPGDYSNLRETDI
T1 sequence (P43140 whole entry): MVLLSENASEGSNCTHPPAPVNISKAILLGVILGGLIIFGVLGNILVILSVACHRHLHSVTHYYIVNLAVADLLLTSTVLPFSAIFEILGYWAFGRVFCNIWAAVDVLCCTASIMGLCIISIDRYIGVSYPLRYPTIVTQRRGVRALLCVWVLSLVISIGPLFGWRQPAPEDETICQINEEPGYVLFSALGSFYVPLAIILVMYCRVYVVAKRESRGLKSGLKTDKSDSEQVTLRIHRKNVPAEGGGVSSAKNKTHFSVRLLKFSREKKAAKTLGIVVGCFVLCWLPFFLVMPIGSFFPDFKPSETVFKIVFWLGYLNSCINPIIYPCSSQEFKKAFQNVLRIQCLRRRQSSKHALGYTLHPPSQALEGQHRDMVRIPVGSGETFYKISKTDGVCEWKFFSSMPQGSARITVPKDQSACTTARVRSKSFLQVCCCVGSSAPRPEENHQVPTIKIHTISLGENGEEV

D(1A) dopamine receptor = D(1A) dopamine receptor (Rattus norvegicus, UniProt P18901)
Description: Inhibitory binding of [3H]SCH-23390 to Dopamine receptor D1 in membranes from rat corpus striatum

[2] = molecular target: T2, 5-hydroxytryptamine receptor 2C (Rattus norvegicus, UniProt P08909)
T2 sequence (P08909 whole entry): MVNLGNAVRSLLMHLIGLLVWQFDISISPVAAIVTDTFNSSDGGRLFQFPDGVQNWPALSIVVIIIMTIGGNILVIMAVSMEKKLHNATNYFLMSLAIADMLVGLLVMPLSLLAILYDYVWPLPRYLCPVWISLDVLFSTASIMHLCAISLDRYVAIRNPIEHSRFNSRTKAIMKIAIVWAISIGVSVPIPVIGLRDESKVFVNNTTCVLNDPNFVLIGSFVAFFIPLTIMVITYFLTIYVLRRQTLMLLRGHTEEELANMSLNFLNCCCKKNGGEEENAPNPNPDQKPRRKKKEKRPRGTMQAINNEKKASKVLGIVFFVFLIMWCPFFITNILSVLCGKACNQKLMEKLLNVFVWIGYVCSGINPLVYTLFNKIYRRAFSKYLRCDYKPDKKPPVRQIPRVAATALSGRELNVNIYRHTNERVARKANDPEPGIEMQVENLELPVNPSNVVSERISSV
Description: Inhibition of [3H]mesulergine binding to 5-hydroxytryptamine 2C receptor in rat brain membranes

[3] = molecular target: 5-hydroxytryptamine receptor 2A (Rattus norvegicus, UniProt P14842); experiment: Inhibition of [3H]ketanserin binding to 5-hydroxytryptamine 2A receptor from rat brain
[4] = molecular target: T3, Muscarinic acetylcholine receptor M1 (Homo sapiens, UniProt P11229); experiment: Inhibitory binding of [3H]pirenzepine to human Muscarinic acetylcholine receptor M1 in membranes from CHO-K1 cells; format: cell-based
T3 sequence (P11229 whole entry): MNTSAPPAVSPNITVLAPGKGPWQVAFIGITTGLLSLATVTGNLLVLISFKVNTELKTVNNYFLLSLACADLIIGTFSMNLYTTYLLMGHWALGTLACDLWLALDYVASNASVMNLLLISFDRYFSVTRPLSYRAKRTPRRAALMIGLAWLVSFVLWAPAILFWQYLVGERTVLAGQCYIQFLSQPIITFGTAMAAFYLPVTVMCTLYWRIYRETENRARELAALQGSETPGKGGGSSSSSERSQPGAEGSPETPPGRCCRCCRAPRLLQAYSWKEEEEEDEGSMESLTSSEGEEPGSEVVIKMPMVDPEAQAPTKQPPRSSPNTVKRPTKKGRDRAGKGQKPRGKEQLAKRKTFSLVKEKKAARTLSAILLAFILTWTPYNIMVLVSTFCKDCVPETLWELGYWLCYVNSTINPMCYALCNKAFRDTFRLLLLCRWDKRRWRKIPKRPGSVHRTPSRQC

Histamine H1 receptor = Histamine H1 receptor (Rattus norvegicus, UniProt P31390); experiment: Inhibitory binding of [3H]mepyramine to histamine H1 receptors in rat brain membranes; format: cell membranes
Rattus norvegicus [5] = experiment: Locomotor activity in male Wistar rats after a dose of 30 uM/kg, 30 min before 1 mg/kg of apomorphine administration; format: functional
Rattus norvegicus [6] = experiment: Catalytic action on male Wistar rats after subcutaneous administration of 100 µmol/kg dose of compound
Rattus norvegicus [7] = experiment: Locomotor activity in male Wistar rats after a dose of 10 uM/kg, 30 min before 1 mg/kg of apomorphine administration; format: functional
Rattus norvegicus [8] = experiment: Locomotor activity in male Wistar rats after a dose of 3 uM/kg, 30 min before 1 mg/kg of apomorphine administration; format: functional
Rattus norvegicus [9] = experiment: Catalytic action on male Wistar rats after subcutaneous administration of 10 µmol/kg dose of compound
Rattus norvegicus [10] = experiment: Locomotor activity in male Wistar rats after a dose of 100 uM/kg, 30 min before 1 mg/kg of apomorphine administration; format: functional
Rattus norvegicus [11] = experiment: Locomotor activity in male Wistar rats after a dose of 0.3 uM/kg, 30 min before 1 mg/kg of apomorphine administration; format: functional
Rattus norvegicus [12] = experiment: Catalytic action on male Wistar rats after subcutaneous administration of 0.003 µmol/kg dose of compound
Rattus norvegicus [13] = experiment: Locomotor activity in male Wistar rats after a dose of 0.003 uM/kg, 30 min before 1 mg/kg of apomorphine administration; format: functional
Rattus norvegicus [14] = experiment: Catalytic action on male Wistar rats after subcutaneous administration of 0.3 µmol/kg dose of compound
Rattus norvegicus [15] = experiment: Catalytic action on male Wistar rats after subcutaneous administration of 0.03 µmol/kg dose of compound
Rattus norvegicus [16] = experiment: Locomotor activity in male Wistar rats after a dose of 0.03 uM/kg, 30 min before 1 mg/kg of apomorphine administration; format: functional
Rattus norvegicus [17] = experiment: Locomotor activity in male Wistar rats after a dose of 3.0 uM/kg, 30 min before 1 mg/kg of apomorphine administration; format: functional
Rattus norvegicus [18] = experiment: Locomotor activity in male Wistar rats after a dose of 1.0 uM/kg, 30 min before 1 mg/kg of apomorphine administration; format: functional
Rattus norvegicus [19] = experiment: Catalytic action on male Wistar rats after subcutaneous administration of 1.0 µmol/kg dose of compound
Rattus norvegicus [20] = experiment: Catalytic action on male Wistar rats after subcutaneous administration of 3.0 µmol/kg dose of compound
Rattus norvegicus [21] = experiment: Catalytic action on male Wistar rats after subcutaneous administration of 30 µmol/kg dose of compound

D(1A) dopamine receptor, sequence (P18901 whole entry): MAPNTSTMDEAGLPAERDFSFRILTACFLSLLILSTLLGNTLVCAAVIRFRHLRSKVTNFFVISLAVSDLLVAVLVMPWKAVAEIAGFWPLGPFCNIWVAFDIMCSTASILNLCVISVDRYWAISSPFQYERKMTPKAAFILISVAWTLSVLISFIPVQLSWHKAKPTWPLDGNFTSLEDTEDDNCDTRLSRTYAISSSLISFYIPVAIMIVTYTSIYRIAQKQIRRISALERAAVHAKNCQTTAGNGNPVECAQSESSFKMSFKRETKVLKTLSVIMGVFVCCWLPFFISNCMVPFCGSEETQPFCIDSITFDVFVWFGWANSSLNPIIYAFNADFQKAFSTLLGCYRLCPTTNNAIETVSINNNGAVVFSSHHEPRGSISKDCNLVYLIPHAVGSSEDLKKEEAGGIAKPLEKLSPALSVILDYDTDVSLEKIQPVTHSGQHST
5-hydroxytryptamine receptor 2A, sequence (P14842 whole entry): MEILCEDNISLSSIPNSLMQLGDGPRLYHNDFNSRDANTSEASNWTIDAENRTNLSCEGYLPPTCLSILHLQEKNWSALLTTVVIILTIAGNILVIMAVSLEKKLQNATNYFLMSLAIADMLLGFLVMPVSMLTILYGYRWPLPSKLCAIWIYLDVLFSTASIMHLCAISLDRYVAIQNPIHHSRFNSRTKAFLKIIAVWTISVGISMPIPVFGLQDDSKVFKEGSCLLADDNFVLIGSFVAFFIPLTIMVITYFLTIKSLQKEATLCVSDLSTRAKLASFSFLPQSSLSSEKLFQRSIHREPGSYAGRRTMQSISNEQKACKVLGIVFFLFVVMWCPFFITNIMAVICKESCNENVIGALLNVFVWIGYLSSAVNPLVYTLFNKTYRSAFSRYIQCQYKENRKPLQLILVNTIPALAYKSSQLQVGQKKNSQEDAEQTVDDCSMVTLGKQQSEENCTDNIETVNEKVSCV
Histamine H1 receptor, sequence (P31390 whole entry): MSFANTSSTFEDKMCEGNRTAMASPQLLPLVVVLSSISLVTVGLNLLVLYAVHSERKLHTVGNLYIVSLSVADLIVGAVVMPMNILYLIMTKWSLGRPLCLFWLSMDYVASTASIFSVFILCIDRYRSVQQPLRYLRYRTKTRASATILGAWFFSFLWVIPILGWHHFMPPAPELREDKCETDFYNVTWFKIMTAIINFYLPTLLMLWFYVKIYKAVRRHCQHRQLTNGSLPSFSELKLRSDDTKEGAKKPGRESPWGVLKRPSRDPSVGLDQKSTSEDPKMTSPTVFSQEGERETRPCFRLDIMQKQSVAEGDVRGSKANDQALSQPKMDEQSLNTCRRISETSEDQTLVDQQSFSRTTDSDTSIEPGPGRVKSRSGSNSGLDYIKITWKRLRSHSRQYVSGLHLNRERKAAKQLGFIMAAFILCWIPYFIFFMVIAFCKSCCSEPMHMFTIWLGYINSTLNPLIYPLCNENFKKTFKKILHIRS

Row | SMILES | IC50 [1] | IC50 (D(1A) dopamine receptor) | IC50 [2] | IC50 [3] | IC50 [4] | Locomotor activity (Rattus norvegicus [7]) | Catalyptic action (Rattus norvegicus [9]) | further results
1 | CN1CCN(C2=Nc3ccccc3Nc3ccc(O)cc32)CC1 | 260 nM | 550 nM | 81 nM | 35 nM | 37 nM | – | – | –
2 | COc1ccc2c(c1)C(N1CCN(C)CC1)=Nc1ccccc1N2 | 120 nM | 550 nM | 21 nM | 12 nM | 39 nM | – | – | –
3 | CN1CCN(C2=Nc3cc(Cl)ccc3Nc3ccccc32)CC1 [CLOZAPINE] | – | – | – | – | – | 98 | 0 | Catalyptic action (Rattus norvegicus [6]): 0; Locomotor activity (Rattus norvegicus [10]): 7
4 | O=C(CCCN1CCC(O)(c2ccc(Cl)cc2)CC1)c1ccc(F)cc1 [HALOPERIDOL] | – | – | – | – | – | – | – | Locomotor activity (Rattus norvegicus [11]): 1; Catalyptic action (Rattus norvegicus [12]): 0; Locomotor activity (Rattus norvegicus [13]): 88; Catalyptic action (Rattus norvegicus [14]): 100; Catalyptic action (Rattus norvegicus [15]): 75; Locomotor activity (Rattus norvegicus [16]): 9
5 | CN1CCN(C2=Nc3ccccc3Nc3ccc(Cl)cc32)CC1 [ISOCLOZAPINE] | 64 nM | 11 nM | – | – | 6 nM | 3 | 25 | Locomotor activity (Rattus norvegicus [11]): 114; Locomotor activity (Rattus norvegicus [5]): 3; Catalyptic action (Rattus norvegicus [14]): 0; Locomotor activity (Rattus norvegicus [17]): 65; Locomotor activity (Rattus norvegicus [18]): 82; Catalyptic action (Rattus norvegicus [19]): 0; Catalyptic action (Rattus norvegicus [20]): 0; Catalyptic action (Rattus norvegicus [21]): 75

Further lines, with some results ahead:

Row | IC50 [1] | IC50 (D(1A) dopamine receptor) | IC50 [2] | IC50 [3] | IC50 [4] | SMILES | Locomotor activity (Rattus norvegicus [7]) | Catalyptic action (Rattus norvegicus [9]) | further results
6 | > 1000 nM | 930 nM | 620 nM | 550 nM | 35 nM | CN1CCN(C2=Nc3cc(OS(=O)(=O)C(F)(F)F)ccc3Nc3ccccc32)CC1 | – | – | IC50 (Histamine H1 receptor): 720 nM
7 | 1200 nM | 9800 nM | 440 nM | – | 27 nM | CN1CCN(C2=Nc3cc(O)ccc3Nc3ccccc32)CC1 | – | – | –
8 | 12 nM | 64 nM | 34 nM | 8 nM | 1200 nM | CN1CCN(C2=Nc3ccccc3Nc3ccc(OS(=O)(=O)C(F)(F)F)cc32)CC1 | 102 | 0 | Locomotor activity (Rattus norvegicus [5]): 22; Catalyptic action (Rattus norvegicus [6]): 0; IC50 (Histamine H1 receptor): 47 nM; Locomotor activity (Rattus norvegicus [8]): 87; Locomotor activity (Rattus norvegicus [10]): 8
9 | 240 nM | 7400 nM | 86 nM | – | 19 nM | COc1ccc2c(c1)N=C(N1CCN(C)CC1)c1ccccc1N2 | – | – | –
